Results on 17 compounds are retold here after patent US8785467B2, “Alkoxy pyrimidine PDE10 inhibitors” (Merck Sharp & Dohme Corp., priority 2010, dated 2014).

Chain of human PDE10A2 (Q9Y233 267-1055): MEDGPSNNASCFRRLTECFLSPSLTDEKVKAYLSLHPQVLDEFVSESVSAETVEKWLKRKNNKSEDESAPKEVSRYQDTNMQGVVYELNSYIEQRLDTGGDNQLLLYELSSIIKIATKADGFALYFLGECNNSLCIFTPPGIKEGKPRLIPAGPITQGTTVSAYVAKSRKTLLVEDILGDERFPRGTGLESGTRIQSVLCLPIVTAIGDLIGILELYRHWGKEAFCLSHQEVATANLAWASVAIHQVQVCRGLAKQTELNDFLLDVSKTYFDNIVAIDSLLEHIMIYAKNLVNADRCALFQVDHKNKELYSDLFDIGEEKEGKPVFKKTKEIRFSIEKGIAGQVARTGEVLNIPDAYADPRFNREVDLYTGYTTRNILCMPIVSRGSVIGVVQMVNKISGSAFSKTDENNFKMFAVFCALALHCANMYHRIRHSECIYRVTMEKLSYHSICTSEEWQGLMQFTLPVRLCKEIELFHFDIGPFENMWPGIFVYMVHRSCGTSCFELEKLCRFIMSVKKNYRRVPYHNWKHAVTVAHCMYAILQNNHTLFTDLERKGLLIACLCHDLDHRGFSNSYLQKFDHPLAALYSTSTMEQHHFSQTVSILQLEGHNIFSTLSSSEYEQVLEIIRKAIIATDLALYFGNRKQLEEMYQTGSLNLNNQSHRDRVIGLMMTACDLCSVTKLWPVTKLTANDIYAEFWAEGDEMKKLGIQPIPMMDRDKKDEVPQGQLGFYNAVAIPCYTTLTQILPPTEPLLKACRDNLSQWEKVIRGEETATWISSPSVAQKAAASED

This experiment concerns the target human PDE10A2 (Homo sapiens (Human), UniProt Q9Y233). Kind of experiment: PDE10 fluorescence polarization (IMAP FP) inhibition assay. It counts as biochemical. The conditions noted are these: human PDE10A2 from transfected AD293 cell lysate, FAM-labeled cAMP 50 nM, room temperature; read-out: PDE10A Ki. The method, then:
The activity of the compounds in accordance with the present invention as PDE10 inhibitors may be readily determined without undue experimentation using a fluorescence polarization (FP) methodology that is well known in the art (Huang, W., et al., J. Biomol Screen, 2002, 7: 215).
In a typical experiment the PDE10 inhibitory activity of the compounds of the present invention was determined in accordance with the following experimental method. PDE10A2 was amplified from human fetal brain cDNA (Clontech, Mountain View, Calif.) using a forward primer corresponding to nucleotides 56-77 of human PDE10A2 (Accession No. AF127480, Genbank Identifier 4894716), containing a Kozak consensus sequence, and a reverse primer corresponding to nucleotides 2406-2413 of human PDE10A2 (Accession No. AF 127480, Genbank Identifier 4894716). Amplification with Easy-A polymerase (Stratagene, La Jolla, Calif.) was 95° C. for 2 minutes followed by thirty three cycles of 95° C. for 40 seconds, 55° C. for 30 seconds, and 72° C. for 2 minutes 48 seconds. Final extension was 72° C. for 7 minutes. The PCR product was TA cloned into pcDNA3.2-TOPO (Invitrogen, Carlsbad, Calif.) according to standard protocol. AD293 cells with 70-80% confluency were transiently transfected with human PDE10A2/pcDNA3.2-TOPO using Lipofectamine 2000 according to manufacturer specifications (Invitrogen, Carlsbad, Calif.). Cells were harvested 48 hours post-transfection and lysed by sonication (setting 3, 10×5 sec pulses) in a buffer containing 20 mM HEPES, 1 mM EDTA and protease inhibitor cocktail (Roche). Lysate was collected by centrifugation at 75,000×g for 20 minutes. Supernatant containing the cytoplasmic fraction was used for evaluation of PDE10A2 activity. The fluorescence polarization assay for cyclic nucleotide phosphodiesterases was performed using an IMAP® FP kit supplied by Molecular Devices, Sunnyvale, Calif. (product #R8139). IMAP® technology has been applied previously to phosphodiesterase assays (Huang, W., et al., J. Biomol Screen, 2002, 7: 215). Assays were performed at room temperature in 384-well microtiter plates with an incubation volume of 20.2 μL. Solutions of test compounds were prepared in DMSO and serially diluted with DMSO to yield 8 μL of each of 10 solutions differing by 3-fold in concentration, at 32 serial dilutions per plate. 100% inhibition is determined using a known PDE10 inhibitor, which can be any compound that is present at 5,000 times its Ki value in the assay described as follows, such as papaverine (see Siuciak, et al. Neuropharmacology (2006) 51:386-396; Becker, et al. Behav Brain Res (2008) 186(2):155-60; Threlfell, et al., J Pharmacol Exp Ther (2009) 328(3):785-795), 2-{4-[pyridin-4-yl-1-(2,2,2-trifluoroethyl)-1H-pyrazol-3-yl]phenoxymethyl}quinoline succinic acid or 2-[4-(1-methyl-4-pyridin-4-yl-1H-pyrazol-3-yl)-phenoxymethyl]quinoline succinic acid (see Schmidt, et al. J Pharmacol Exp Ther (2008) 325:681-690; Threlfell, et al., J Pharmacol Exp Ther (2009) 328(3): 785-795). 0% of inhibition is determined by using DMSO (1% final concentrations).
A Labcyte Echo 555 (Labcyte, Sunnyvale, Calif.) is used to dispense 200 nL from each well of the titration plate to the 384 well assay plate. A solution of enzyme ( 1/1600 dilution from aliquots; sufficient to produce 20% substrate conversion) and a separate solution of FAM-labeled cAMP PDE from Molecular Devices (product #R7506), at a final concentration of 50 nM are made in the assay buffer (10 mM Tris HCl, pH 7.2, 10 mM MgCl2, 0.05% NaN3 0.01% Tween-20, and 1 mM DTT). The enzyme and the substrate are then added to the assay plates in two consecutive additions of 10 μL, and then shaken to mix. The reaction is allowed to proceed at room temperature for 30 minutes. A binding solution is then made from the kit components, comprised of 80% Solution A, 20% Solution B and binding reagent at a volume of 1/600 the total binding solution. […]
On to `COc1ccc([C@H]2C[C@@H]2COc2nc(Cl)c(C)c(NCc3cnn(C)n3)n2)nc1` [Compound 1-50], for which the Ki turned out to be 0.77 nM.
For `Cc1c(Cl)nc(OC[C@H]2C[C@@H]2c2ccc3ncccc3n2)nc1NCc1nc(C)n(C)n1` [Compound 1-47, 2-(((1S,2S)-2-(1,5-naphthyridin-2-yl)cyclopropyl)methoxy)-6-chloro-N-((1,5-dimethyl-1H-1,2,4-triazol-3-yl)methyl)-5-methylpyrimidin-4-amine], the Ki was 8.1 nM.
In the case of `Cc1nc(C)c(CNc2nc(OCCOc3ccc4cccnc4n3)nc(Cl)c2C)s1` [Compound 1-32, 6-chloro-N-[(2,4-dimethyl-1,3-thiazol-5-yl)methyl]-5-methyl-2-[2-(1,8-naphthyridin-2-yloxy)ethoxy]pyrimidin-4-amine] it was 0.04 nM; in that of `Cc1nc(C)c(CNc2nc(OCCc3ccccn3)nc(C#N)c2C)s1` [Compound 1-42, 6-((2,4-dimethylthiazol-5-yl)methylamino)-5-methyl-2-(2-(pyridin-2-yl)ethoxy)pyrimidine-4-carbonitrile], 100 nM.
In the case of `Cc1nc(C)c(CNc2nc(OC[C@H]3C[C@@H]3c3ccc4ncccc4n3)ncc2C)s1` [Compound 1-45, 2-(((1S,2S)-2-(1,5-naphthyridin-2-yl)cyclopropyl)methoxy)-N-((2,4-dimethylthiazol-5-yl)methyl)-5-methylpyrimidin-4-amine] it was 0.058 nM; in that of `Cc1nc(C)c(CNc2nc(OC[C@H]3C[C@@H]3c3ccccn3)nc(-c3ncco3)c2C)s1` (stereo in doubt) [Compound 1-46, N-((2,4-dimethylthiazol-5-yl)methyl)-5-methyl-6-(oxazol-2-yl)-2-((2-(pyridin-2-yl)cyclopropyl)methoxy)-pyrimidin-4-amine], 6.4 nM.
In the case of `Cc1nc(C)c(CNc2nc(OCCCc3nc4ccccc4[nH]3)nc(Cl)c2C)s1` [Compound 1-27, 2-[3-(1H-benzimidazol-2-yl)propoxy]-6-chloro-N-[(2,4-dimethyl-1,3-thiazol-5-yl)methyl]-5-methylpyrimidin-4-amine], the inhibitory constant (Ki) was determined as 0.023 nM.
In the case of `Cc1nc(CNc2nc(OC[C@H]3C[C@@H]3c3ccc4ncccc4n3)nc(Cl)c2C)n(C)n1` [Compound 1-49, 2-(((1S,2S)-2-(1,5-naphthyridin-2-yl)cyclopropyl)methoxy)-6-chloro-N-((1,3-dimethyl-1H-1,2,4-triazol-5-yl)methyl)-5-methylpyrimidin-4-amine], the Ki was 2.2 nM.
With `Cc1c(Cl)nc(OCCCc2ccc3ncccc3n2)nc1NCc1cnn(C)c1` [Compound 1-21, 6-chloro-5-methyl-N-[(1-methyl-1H-pyrazol-4-yl)methyl]-2-[3-(1,5-naphthyridin-2-yl)propoxy]pyrimidin-4-amine], the Ki amounted to 2.1 nM.
Regarding `Cc1nc(C)c(CNc2nc(OC[C@H]3C[C@@H]3c3ccc4ncccc4n3)nc(Cl)c2C)o1` [Compound 1-48, 2-(((1S,2S)-2-(1,5-naphthyridin-2-yl)cyclopropyl)methoxy)-6-chloro-N-((2,4-dimethyloxazol-5-yl)methyl)-5-methylpyrimidin-4-amine], the Ki came out at 0.49 nM.
In the case of `Cc1nc(C)c(CNc2nc(OC[C@H]3C[C@@H]3c3ccccn3)nc(Cl)c2C)s1` (stereo in doubt) [Compound 1-20, 6-chloro-N-[(2,4-dimethyl-1,3-thiazol-5-yl)methyl]-5-methyl-2-{[2-pyridin-2-ylcyclopropyl]methoxy}pyrimidin-4-amine], the inhibition constant (Ki) came out at 0.019 nM.
As for `Cc1c(Cl)nc(OC[C@@H]2C[C@H]2c2ccccn2)nc1NCc1cnn(C)c1` (stereo in doubt) [Compound 1-39, 6-chloro-5-methyl-N-[(1-methyl-1H-pyrazol-4-yl)methyl]-2-{[2-(pyridin-2-yl)cyclopropyl]methoxy}pyrimidin-4-amine], the figure is 0.44 nM; as for `Cc1c(NCc2cnn(C)c2)nc(OC[C@H]2C[C@@H]2c2ccccn2)nc1N(C)C` (stereo in doubt) [Compound 1-44, N4,N4,5-trimethyl-N6-((1-methyl-1H-pyrazol-4-yl)methyl)-2-((2-(pyridin-2-yl)cyclopropyl)methoxy)pyrimidine-4,6-diamine], 53 nM.
As for `Cc1cc(CNc2nc(OC[C@H]3C[C@@H]3c3ccc4ncccc4n3)nc(Cl)c2C)n(C)n1` [Compound 1-51, 2-(((1S,2S)-2-(1,5-naphthyridin-2-yl)cyclopropyl)methoxy)-6-chloro-N-((1,3-dimethyl-1H-pyrazol-5-yl)methyl)-5-methylpyrimidin-4-amine], the figure is 0.0032 nM.
In the case of `Cc1nc(C)c(CNc2nc(OCCCc3ccc4ccccc4n3)nc(Cl)c2C)s1` [Compound 1-29, 6-chloro-N-[(2,4-dimethyl-1,3-thiazol-5-yl)methyl]-5-methyl-2-(3-quinolin-2-ylpropoxy)pyrimidin-4-amine] it was 0.008 nM.
Regarding `CSc1nc(OC[C@H]2C[C@@H]2c2ccccn2)nc(NCc2cnn(C)c2)c1C` (stereo in doubt) [Compound 1-43, 5-methyl-N-((1-methyl-1H-pyrazol-4-yl)methyl)-6-(methylthio)-2-((2-(pyridin-2-yl)cyclopropyl)methoxy)-pyrimidin-4-amine], the Ki was 0.17 nM.
In the case of `Cn1cc(CNc2cc(C#N)nc(OC[C@H]3C[C@@H]3c3ccccn3)n2)cn1` (stereo in doubt) [Compound 1-41, 6-((1-methyl-1H-pyrazol-4-yl)methylamino)-2-((2-(pyridin-2-yl)cyclopropyl)methoxy)pyrimidin-4-carbonitrile] it was 35 nM.
